Results taken from the CheMixHub viscosity set.
± gives the uncertainty stated by the source.

Assay: xn = mol fraction of the nth substance listed

COCCOCCOCCOC + O
viscosity [mPa·s], 101.33 kPa
Details | 298 K | 298.15 K
x1 = 0.0057 | – | 1.058 ± 0.008
x1 = 0.0077 | 1.15 ± 0.03 | –
x1 = 0.0124 | – | 1.278 ± 0.008
x1 = 0.0143 | 1.38 ± 0.036 | –
x1 = 0.0176 | – | 1.444 ± 0.009
x1 = 0.0247 | – | 1.737 ± 0.011
x1 = 0.0255 | 1.83 ± 0.048 | –
x1 = 0.0326 | – | 2.063 ± 0.013
x1 = 0.0455 | – | 2.613 ± 0.015
x1 = 0.0484 | 2.79 ± 0.073 | –
x1 = 0.0673 | – | 3.462 ± 0.02
x1 = 0.0796 | 3.89 ± 0.1 | –
x1 = 0.0814 | 3.95 ± 0.1 | –
x1 = 0.0826 | – | 4.032 ± 0.022
x1 = 0.0934 | 4.25 ± 0.11 | –
x1 = 0.1017 | – | 4.344 ± 0.024
x1 = 0.1022 | 4.4 ± 0.12 | –
x1 = 0.1092 | 4.49 ± 0.12 | –
x1 = 0.1166 | 4.6 ± 0.12 | –
x1 = 0.1215 | – | 4.581 ± 0.025
x1 = 0.1407 | 4.68 ± 0.12 | –
x1 = 0.1423 | – | 4.678 ± 0.026
x1 = 0.1607 | – | 4.625 ± 0.026
x1 = 0.1731 | 4.63 ± 0.12 | –
x1 = 0.1907 | – | 4.512 ± 0.025
x1 = 0.2117 | 4.39 ± 0.11 | –
x1 = 0.2288 | – | 4.179 ± 0.023
x1 = 0.2745 | 3.87 ± 0.1 | 3.819 ± 0.021
x1 = 0.3074 | – | 3.588 ± 0.02
x1 = 0.3483 | 3.29 ± 0.086 | –
x1 = 0.3653 | – | 3.236 ± 0.018
x1 = 0.4097 | – | 3.035 ± 0.017
x1 = 0.4311 | 2.9 ± 0.076 | –
x1 = 0.4857 | – | 2.706 ± 0.016
x1 = 0.5899 | 2.41 ± 0.063 | –
x1 = 0.593 | – | 2.398 ± 0.014
x1 = 0.6382 | – | 2.311 ± 0.014
x1 = 0.702 | – | 2.269 ± 0.014
x1 = 0.745 | 2.16 ± 0.056 | –
x1 = 0.7475 | – | 2.22 ± 0.013
x1 = 0.7813 | – | 2.166 ± 0.013
x1 = 0.7839 | 2.1 ± 0.055 | –
x1 = 0.8141 | – | 2.121 ± 0.013
x1 = 0.8687 | 2.04 ± 0.053 | –
x1 = 0.8937 | – | 2.068 ± 0.013
x1 = 0.9665 | – | 2.035 ± 0.013

O=S(=O)([O-])NC1CCCCC1.[K+] + O
viscosity [mPa·s], 101 kPa
Details | x1 = 0.0007156 | x1 = 0.001095 | x1 = 0.001452 | x1 = 0.001751 | x1 = 0.002086 | x1 = 0.002528 | x1 = 0.002966 | x1 = 0.003212 | x1 = 0.003506 | x1 = 0.003747
293.15 K | 1.021 ± 0.0068 | 1.031 ± 0.0069 | 1.041 ± 0.0069 | 1.049 ± 0.007 | 1.058 ± 0.007 | 1.072 ± 0.0071 | 1.085 ± 0.0072 | 1.091 ± 0.0072 | 1.101 ± 0.0073 | 1.107 ± 0.0073
298.15 K | 0.9071 ± 0.0062 | 0.9163 ± 0.0062 | 0.9245 ± 0.0063 | 0.9318 ± 0.0063 | 0.9397 ± 0.0063 | 0.9515 ± 0.0064 | 0.9626 ± 0.0065 | 0.9683 ± 0.0065 | 0.9765 ± 0.0065 | 0.982 ± 0.0066
303.15 K | 0.8126 ± 0.0056 | 0.8204 ± 0.0056 | 0.8278 ± 0.0057 | 0.8343 ± 0.0057 | 0.8412 ± 0.0057 | 0.8514 ± 0.0058 | 0.8611 ± 0.0059 | 0.866 ± 0.0059 | 0.873 ± 0.0059 | 0.8778 ± 0.0059
313.15 K | 0.6648 ± 0.0047 | 0.6714 ± 0.0047 | 0.6773 ± 0.0048 | 0.6823 ± 0.0048 | 0.6878 ± 0.0048 | 0.6957 ± 0.0049 | 0.7032 ± 0.0049 | 0.7073 ± 0.0049 | 0.7127 ± 0.005 | 0.7164 ± 0.005
323.15 K | 0.5565 ± 0.0041 | 0.5615 ± 0.0041 | 0.5663 ± 0.0041 | 0.5703 ± 0.0041 | 0.5748 ± 0.0042 | 0.5809 ± 0.0042 | 0.5873 ± 0.0042 | 0.5902 ± 0.0042 | 0.5948 ± 0.0043 | 0.5977 ± 0.0043

O=S(=O)([O-])NC1CCCCC1.[Li+] + O
viscosity [mPa·s], 101 kPa
Details | x1 = 0.002028 | x1 = 0.002453 | x1 = 0.00294 | x1 = 0.003377 | x1 = 0.003805 | x1 = 0.004126 | x1 = 0.00489
293.15 K | 1.078 ± 0.0072 | 1.095 ± 0.0073 | 1.115 ± 0.0074 | 1.133 ± 0.0075 | 1.151 ± 0.0076 | 1.164 ± 0.0077 | 1.197 ± 0.0079
298.15 K | 0.956 ± 0.0064 | 0.9707 ± 0.0065 | 0.9874 ± 0.0066 | 1.002 ± 0.0067 | 1.018 ± 0.0068 | 1.029 ± 0.0069 | 1.058 ± 0.007
303.15 K | 0.8547 ± 0.0058 | 0.8675 ± 0.0059 | 0.8819 ± 0.006 | 0.8949 ± 0.0061 | 0.9081 ± 0.0061 | 0.9174 ± 0.0062 | 0.9409 ± 0.0063
313.15 K | 0.6978 ± 0.0049 | 0.7075 ± 0.0049 | 0.7186 ± 0.005 | 0.7288 ± 0.0051 | 0.739 ± 0.0051 | 0.7458 ± 0.0052 | 0.7652 ± 0.0053
323.15 K | 0.5823 ± 0.0042 | 0.5898 ± 0.0042 | 0.5985 ± 0.0043 | 0.6067 ± 0.0043 | 0.6147 ± 0.0044 | 0.6202 ± 0.0044 | 0.6355 ± 0.0045

O=S(=O)([O-])[O-].[Ni+2] + O
viscosity [mPa·s], 101 kPa
Details | x1 = 0.00332 | x1 = 0.0106 | x1 = 0.01799 | x1 = 0.02625 | x1 = 0.0309 | x1 = 0.04249
298.15 K | 1.04 ± 0.03 | 1.32 ± 0.03 | 1.82 ± 0.05 | 2.66 ± 0.07 | 3.13 ± 0.08 | 5.21 ± 0.14
313.15 K | 0.762 ± 0.02 | 0.934 ± 0.024 | 1.283 ± 0.033 | 1.83 ± 0.048 | 2.145 ± 0.056 | 3.462 ± 0.091

OC[C@H]1O[C@@H]2O[C@H]3[C@H](O)[C@@H](O)[C@@H](O[C@H]4[C@H](O)[C@@H](O)[C@@H](O[C@H]5[C@H](O)[C@@H](O)[C@@H](O[C@H]6[C@H](O)[C@@H](O)[C@@H](O[C@H]7[C@H](O)[C@@H](O)[C@@H](O[C@H]8[C@H](O)[C@@H](O)[C@@H](O[C@H]1[C@H](O)[C@H]2O)O[C@@H]8CO)O[C@@H]7CO)O[C@@H]6CO)O[C@@H]5CO)O[C@@H]4CO)O[C@@H]3CO + O
viscosity [mPa·s], 101 kPa
Details | 298.15 K | 310.15 K
x1 = 7.87e-06 | 0.8909 ± 0.006 | 0.6934 ± 0.0049
x1 = 8.39e-06 | 0.891 ± 0.006 | 0.6935 ± 0.0049
x1 = 1.613e-05 | 0.8917 ± 0.006 | 0.6944 ± 0.0049
x1 = 1.679e-05 | 0.8918 ± 0.006 | 0.6945 ± 0.0049
x1 = 3.14e-05 | 0.8931 ± 0.006 | 0.6962 ± 0.0049
x1 = 6.268e-05 | 0.8961 ± 0.0061 | 0.6998 ± 0.005
x1 = 6.666e-05 | 0.8964 ± 0.0061 | 0.7003 ± 0.005
x1 = 0.0001254 | 0.9019 ± 0.0061 | 0.7071 ± 0.005
x1 = 0.0001309 | 0.9024 ± 0.0061 | 0.7078 ± 0.005
x1 = 0.0001573 | 0.9049 ± 0.0061 | 0.7109 ± 0.005
x1 = 0.0001654 | 0.9057 ± 0.0061 | 0.7118 ± 0.005
x1 = 0.0001906 | 0.908 ± 0.0061 | 0.7148 ± 0.005
x1 = 0.0002383 | 0.9125 ± 0.0062 | 0.7203 ± 0.0051

[Cl-].[NH4+] + O
viscosity [mPa·s]
Details | 298.15 K | 308.15 K | 313.15 K | 323.15 K
101.3 kPa, x1 = 0.00112 | – | 0.7299 ± 0.019 | 0.6608 ± 0.018 | 0.556 ± 0.015
101.3 kPa, x1 = 0.002247 | – | 0.7289 ± 0.019 | 0.6597 ± 0.018 | 0.5555 ± 0.015
101.3 kPa, x1 = 0.004484 | – | 0.7281 ± 0.019 | 0.659 ± 0.018 | 0.5551 ± 0.015
101.3 kPa, x1 = 0.008927 | – | 0.7279 ± 0.019 | 0.6586 ± 0.018 | 0.5547 ± 0.015
101.3 kPa, x1 = 0.0177 | – | 0.7315 ± 0.019 | 0.661 ± 0.018 | 0.557 ± 0.015
101.33 kPa, x1 = 0.000905 | – | 0.7306 ± 0.013 | 0.6614 ± 0.012 | 0.5565 ± 0.011
101.33 kPa, x1 = 0.002718 | – | 0.7295 ± 0.013 | 0.6608 ± 0.012 | 0.556 ± 0.011
101.33 kPa, x1 = 0.00453 | – | 0.7288 ± 0.013 | 0.6603 ± 0.012 | 0.5556 ± 0.011
101.33 kPa, x1 = 0.006344 | – | 0.7285 ± 0.013 | 0.6598 ± 0.012 | 0.5544 ± 0.011
101.33 kPa, x1 = 0.008159 | – | 0.731 ± 0.013 | 0.662 ± 0.012 | 0.557 ± 0.011
101.33 kPa, x1 = 0.1165 | 1.094 ± 0.036 | – | – | –
